Laboratory results from US8268988B2, “Process for preparing an A2A-adenosine receptor agonist and its polymorphs” (Gilead Sciences, Inc., priority 2006, dated 2012).

Legend:
A2A-adenosine receptor = A2A-adenosine receptor (Homo sapiens, UniProt P29274); conditions: result in words; cited from earlier work
[1] = cited from earlier work
[2] = stability of the polymorphs (relative humidity stress, moisture sorption/desorption, thermal analyses); format: physicochemical; conditions: for stability relative to the other polymorphs: ambient temperatures; for stability relative to the other polymorphs / stability under relative humidity stress conditions: monohydrate; for stability under relative humidity stress conditions: up to melting point
Protocol: Thermogravimetric (TG) analyses were carried out on a TA Instruments 2050 or 2950 thermogravimetric analyzer. The calibration standards were nickel and Alumel™. Samples were placed in an aluminum sample pan, inserted into the TG furnace, and accurately weighed. The samples were heated in nitrogen at a rate of 10° C./min to either 300 or 350° C. Unless stated otherwise, sample weights were equilibrated at 25° C. in the TGA furnace prior to analysis.
Differential scanning calorimetry (DSC) analyses were carried out on a TA Instruments differential scanning calorimeter 2920. Accurately weighed samples were placed in either crimped pans or hermetically sealed pans that contained a pinhole to allow for pressure release. Each sample was heated under nitrogen at a rate of 10° C./min to either 300 or 350° C. Indium metal was used as the calibration standard. Temperatures were reported at the transition maxima.
Moisture sorption/desorption data were collected on a VTI SGA-100 Vapor Sorption Analyzer. Sorption and desorption data were collected over a range of 5% to 95% relative humidity […] at 10% RH intervals under a nitrogen purge. Sodium chloride (NaCl) and polyvinylpyrrolidone (PVP) were used as the calibration standards. Equilibrium criteria used for analysis were less than 0.0100% weight change in 5 minutes, with a maximum equilibration time of 180 minutes if the weight criterion was not met. The plotted data have not been corrected for the initial moisture content.

Sequence of A2A-adenosine receptor (P29274 whole entry): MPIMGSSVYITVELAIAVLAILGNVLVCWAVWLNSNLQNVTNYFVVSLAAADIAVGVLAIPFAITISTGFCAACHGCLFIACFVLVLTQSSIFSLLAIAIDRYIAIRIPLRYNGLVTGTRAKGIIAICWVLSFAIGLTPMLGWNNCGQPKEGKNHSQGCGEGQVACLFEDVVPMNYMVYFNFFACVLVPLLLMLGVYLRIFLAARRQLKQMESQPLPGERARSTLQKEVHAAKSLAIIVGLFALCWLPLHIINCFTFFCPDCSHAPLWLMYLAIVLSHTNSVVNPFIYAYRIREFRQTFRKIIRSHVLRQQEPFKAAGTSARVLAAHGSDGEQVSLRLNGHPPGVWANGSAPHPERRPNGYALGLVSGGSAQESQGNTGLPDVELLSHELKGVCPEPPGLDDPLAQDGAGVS

CNC(=O)c1cnn(-c2nc(N)c3ncn([C@@H]4O[C@H](CO)[C@@H](O)[C@H]4O)c3n2)c1 [(1-{9-[(4S,2R,3R,5R)-3,4-dihydroxy-5-(hydroxymethyl)oxolan-2-yl]-6-aminopurin-2-yl}pyrazol-4-yl)-N-methylcarboxamide]
A2A-adenosine receptor agonist selectivity (A2A-adenosine receptor): highly selective A2A-adenosine receptor agonist

Nc1ncnc2c1ncn2[C@@H]1O[C@H](CO)[C@@H](O)[C@H]1O [Adenosine]
half life in humans [1]: less than 10 seconds

CNC(=O)c1cnn(-c2nc(N)c3ncn([C@@H]4O[C@H](CO)[C@@H](O)[C@H]4O)c3n2)c1 [Amorphous Material, (1-{9-[(4S,2R,3R,5R)-3,4-dihydroxy-5-(hydroxymethyl)oxolan-2-yl]-6-aminopurin-2-yl}pyrazol-4-yl)-N-methylcarboxamide]
stability in the presence of atmospheric moisture ([2]; atmospheric moisture): unstable in the presence of atmospheric moisture, forming variable hydrates

CNC(=O)c1cnn(-c2nc(N)c3ncn([C@@H]4O[C@H](CO)[C@@H](O)[C@H]4O)c3n2)c1.O [Form A, (1-{9-[(4S,2R,3R,5R)-3,4-dihydroxy-5-(hydroxymethyl)oxolan-2-yl]-6-aminopurin-2-yl}pyrazol-4-yl)-N-methylcarboxamide monohydrate]
stability relative to the other polymorphs ([2]; listed as monohydrate): the most stable | stability relative to the other polymorphs [2]: the most stable of the various polymorphs at ambient temperatures | stability under relative humidity stress conditions ([2]; listed as monohydrate): stable under relative humidity stress conditions, up to its melting point | stability under relative humidity stress conditions [2]: stable under relative humidity stress conditions up to its melting point

CNC(=O)c1cnn(-c2nc(N)c3ncn([C@@H]4O[C@H](CO)[C@@H](O)[C@H]4O)c3n2)c1 [Polymorph C, (1-{9-[(4S,2R,3R,5R)-3,4-dihydroxy-5-(hydroxymethyl)oxolan-2-yl]-6-aminopurin-2-yl}pyrazol-4-yl)-N-methylcarboxamide]
behaviour at elevated temperatures ([2]; elevated temperatures): desolvates to an unstable form
